# Results published in the supplement of paper PMC10307832.
# Experiments:
# Experiment in all cases: relative viability (nuclei count vs DMSO), 5 days (fraction); higher = more cells survive
# IMD-0354 + Olaparib = compound: O=C(Nc1cc(C(F)(F)F)cc(C(F)(F)F)c1)c1cc(Cl)ccc1O [IMD-0354] + O=C(c1cc(Cc2n[nH]c(=O)c3ccccc23)ccc1F)N1CCN(C(=O)C2CC2)CC1 [Olaparib] (partner 8 µM)
# Method in brief: (§1)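 Lung cancer cell lines in 1536-well plates got either a single drug or a fixed anchor-drug dose together with five library-drug doses (not always all listed) in √10 steps, by pin tool, on the day after seeding. Nuclei were counted after 5 days, and relative viability is the treated-to-vehicle ratio of nuclei counts. Values are medians of duplicate plates.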
# CX-5461 + Luminespib = compound: Cc1cnc(CNC(=O)c2c(=O)c3ccc(N4CCCN(C)CC4)nc3n3c2sc2ccccc23)cn1 [CX-5461] + CCNC(=O)c1noc(-c2cc(C(C)C)c(O)cc2O)c1-c1ccc(CN2CCOCC2)cc1 [Luminespib] (partner 0.01 µM)
# Method in brief: as §1
# IMD-0354 + Pictilisib = compound: O=C(Nc1cc(C(F)(F)F)cc(C(F)(F)F)c1)c1cc(Cl)ccc1O [IMD-0354] + CS(=O)(=O)N1CCN(Cc2cc3nc(-c4cccc5[nH]ncc45)nc(N4CCOCC4)c3s2)CC1 [Pictilisib] (partner 1 µM)
# Method in brief: as §1
# CX-5461 + Trametinib = compound: Cc1cnc(CNC(=O)c2c(=O)c3ccc(N4CCCN(C)CC4)nc3n3c2sc2ccccc23)cn1 [CX-5461] + CC(=O)Nc1cccc(-n2c(=O)n(C3CC3)c(=O)c3c(Nc4ccc(I)cc4F)n(C)c(=O)c(C)c32)c1 [Trametinib] (partner 0.02 µM)
# Method in brief: as §1
Cell Line,relative viability (IMD-0354 + Olaparib; first compound 0.04 µM),relative viability (IMD-0354 + Olaparib; first compound 0.1265 µM),relative viability (IMD-0354 + Olaparib; first compound 0.4 µM),relative viability (IMD-0354 + Olaparib; first compound 1.265 µM),relative viability (IMD-0354 + Olaparib; first compound 4 µM),relative viability (CX-5461 + Luminespib; first compound 0.01 µM),relative viability (CX-5461 + Luminespib; first compound 0.03162 µM),relative viability (CX-5461 + Luminespib; first compound 0.1 µM),relative viability (CX-5461 + Luminespib; first compound 0.3162 µM),relative viability (CX-5461 + Luminespib; first compound 1 µM),relative viability (IMD-0354 + Pictilisib; first compound 0.04 µM),relative viability (IMD-0354 + Pictilisib; first compound 0.1265 µM),relative viability (IMD-0354 + Pictilisib; first compound 0.4 µM),relative viability (IMD-0354 + Pictilisib; first compound 1.265 µM),relative viability (IMD-0354 + Pictilisib; first compound 4 µM),relative viability (CX-5461 + Trametinib; first compound 0.01 µM),relative viability (CX-5461 + Trametinib; first compound 0.03162 µM),relative viability (CX-5461 + Trametinib; first compound 0.1 µM),relative viability (CX-5461 + Trametinib; first compound 0.3162 µM),relative viability (CX-5461 + Trametinib; first compound 1 µM)
NCI-H322M,0.789,0.773,0.6,0.407,0.517,1.08,0.799,0.798,0.469,0.402,0.575,0.519,0.485,0.557,0.446,0.441,0.542,0.55,0.407,0.508
NCI-H358,0.569,0.543,0.335,0.14,0.198,0.317,0.42,0.327,0.358,0.371,0.319,0.31,0.263,0.241,0.22,0.125,0.108,0.0974,0.102,0.0846
NCI-H441,0.537,0.541,0.604,0.186,0.194,0.322,0.421,0.323,0.444,0.239,0.543,0.521,0.316,0.266,0.183,0.451,0.552,0.441,0.429,0.24
NCI-H460,0.395,0.322,0.363,0.0469,0.0473,0.0291,0.0347,–,0.041,0.0205,0.438,0.48,0.184,0.0352,0.0702,0.21,0.142,0.0583,0.0956,0.0222
NCI-H520,0.325,0.317,0.318,0.146,0.189,0.195,0.194,0.202,0.262,0.218,0.372,0.287,0.195,0.17,0.117,0.754,0.642,0.734,0.327,0.352
NCI-H596,0.758,0.635,0.701,0.818,0.463,1.07,0.912,1.17,1.12,1.12,0.383,0.381,0.375,0.372,0.34,0.763,0.819,0.73,0.836,0.756
NCI-H647,0.67,0.485,0.292,0.0684,0.113,0.192,0.163,0.169,0.146,0.108,0.626,0.524,0.184,0.232,0.0513,0.589,0.331,0.494,0.451,0.218
NCI-H650,0.329,0.355,0.32,0.211,0.144,0.767,0.743,0.799,0.711,0.364,1.09,0.89,0.597,0.415,0.239,1.06,0.938,0.991,1.05,0.911
NCI-H661,0.752,0.774,0.356,0.256,0.261,0.928,0.879,0.792,0.575,0.433,0.416,0.418,0.34,0.264,0.252,0.647,0.621,0.544,0.432,0.376
NCI-H727,0.574,0.633,0.617,0.524,0.318,0.664,0.439,0.384,0.58,0.321,0.384,0.368,0.35,0.237,0.238,0.375,0.389,0.4,0.356,0.379
NCI-H838,0.778,0.73,0.426,0.253,0.302,0.299,0.301,0.36,–,0.179,0.559,0.458,0.377,0.247,0.26,0.555,0.555,0.539,0.328,0.482
NCI-H1355,0.663,0.769,0.452,0.198,0.175,0.843,0.728,0.753,0.706,0.814,0.619,0.404,0.327,0.196,0.206,0.456,0.496,0.462,0.414,0.435
NCI-H1395,0.449,0.464,0.466,0.361,0.337,0.669,0.596,0.677,0.667,0.644,0.592,0.589,0.555,0.346,0.348,1.09,0.821,1.07,0.741,0.71
NCI-H1437,0.669,0.574,0.376,0.218,0.232,1.15,1.2,–,1.08,0.966,0.492,0.381,0.442,0.153,0.185,0.542,0.568,0.469,0.537,0.391
NCI-H1650,0.827,0.82,0.463,0.325,0.145,0.181,0.161,0.211,0.215,0.193,0.722,0.484,0.434,0.166,0.191,0.564,0.447,0.532,0.678,0.207
NCI-H1651,0.189,0.196,0.177,0.177,0.124,0.827,0.682,–,0.603,0.171,0.663,0.461,0.34,0.068,0.0829,0.824,0.791,0.87,0.79,0.778

Cell Line,relative viability (IMD-0354 + Olaparib; first compound 0.04 µM),relative viability (IMD-0354 + Olaparib; first compound 0.1265 µM),relative viability (IMD-0354 + Olaparib; first compound 0.4 µM),relative viability (IMD-0354 + Olaparib; first compound 1.265 µM),relative viability (IMD-0354 + Olaparib; first compound 4 µM),relative viability (CX-5461 + Luminespib; first compound 0.01 µM),relative viability (CX-5461 + Luminespib; first compound 0.03162 µM),relative viability (CX-5461 + Luminespib; first compound 0.1 µM),relative viability (CX-5461 + Luminespib; first compound 0.3162 µM),relative viability (CX-5461 + Luminespib; first compound 1 µM),relative viability (IMD-0354 + Pictilisib; first compound 0.04 µM),relative viability (IMD-0354 + Pictilisib; first compound 0.1265 µM),relative viability (IMD-0354 + Pictilisib; first compound 0.4 µM),relative viability (IMD-0354 + Pictilisib; first compound 1.265 µM),relative viability (IMD-0354 + Pictilisib; first compound 4 µM),relative viability (CX-5461 + Trametinib; first compound 0.01 µM),relative viability (CX-5461 + Trametinib; first compound 0.03162 µM),relative viability (CX-5461 + Trametinib; first compound 0.1 µM),relative viability (CX-5461 + Trametinib; first compound 0.3162 µM),relative viability (CX-5461 + Trametinib; first compound 1 µM)
NCI-H1666,0.752,0.748,0.857,0.703,0.562,0.938,0.93,0.922,1.01,0.775,0.308,0.434,0.295,0.176,0.201,0.895,0.891,0.719,0.821,0.65
NCI-H1734,0.608,0.68,0.465,0.421,0.175,0.182,0.148,0.193,0.173,0.157,0.495,0.51,0.339,0.209,0.143,0.716,0.781,0.788,0.599,0.711
NCI-H1755,0.782,0.907,0.707,0.585,0.23,0.383,0.357,0.482,0.402,0.512,0.562,0.422,0.335,0.232,0.22,0.826,0.796,0.836,0.719,0.753
NCI-H1792,0.393,0.389,0.236,0.21,0.172,0.57,0.48,0.432,0.458,0.497,0.298,0.225,0.622,0.203,0.204,0.542,0.434,0.407,0.401,0.52
NCI-H1793,0.856,0.797,0.399,0.213,0.251,0.199,0.249,0.131,–,0.194,0.357,0.319,0.235,0.172,0.206,0.386,0.519,0.364,0.411,0.353
NCI-H1915,0.264,0.263,0.235,0.175,0.136,0.857,0.852,0.813,0.923,0.783,0.68,1.02,0.671,0.33,0.199,0.285,0.326,0.327,0.315,0.307
NCI-H1944,0.377,0.331,0.3,0.302,0.191,0.854,0.711,0.864,0.51,0.672,0.351,0.341,–,0.234,0.151,0.47,0.406,0.419,0.314,0.448
NCI-H1975,1.07,0.912,0.437,0.191,0.18,0.353,0.249,0.43,0.191,0.202,0.329,0.316,0.26,0.155,0.137,0.39,0.317,0.367,0.395,0.298
NCI-H1993,0.917,0.982,0.819,0.651,0.541,0.869,0.935,0.861,0.724,0.907,0.773,0.783,0.706,0.617,0.662,0.525,0.448,0.476,0.431,0.544
NCI-H2009,0.625,0.694,0.591,0.366,0.115,1.08,1.02,0.887,0.985,0.508,1,0.844,0.618,0.114,0.0666,0.341,0.271,0.286,0.301,0.243
NCI-H2023,0.504,0.427,0.315,0.0756,0.183,0.675,0.318,–,0.314,0.0698,0.301,0.255,0.202,0.0996,0.0899,0.54,0.564,–,0.491,0.115
NCI-H2085,0.785,0.795,0.713,0.412,0.377,0.488,0.404,0.32,0.567,0.405,0.404,0.422,0.424,0.309,0.303,0.516,0.564,0.464,0.527,0.615
NCI-H2087,0.517,0.457,0.207,0.0984,0.122,0.184,0.166,0.15,0.158,0.178,0.711,0.979,0.43,0.198,0.228,0.173,0.268,0.201,0.209,0.186
NCI-H2126,1,0.908,0.68,0.512,0.364,0.883,0.848,0.908,0.847,0.411,0.527,0.478,0.471,0.353,0.302,0.591,0.628,0.591,0.557,0.526
NCI-H2170,0.531,0.647,0.421,0.561,0.185,0.636,0.54,1.02,0.771,0.554,0.283,0.304,0.308,0.284,0.277,0.987,0.976,0.971,0.952,0.862
NCI-H2228,0.888,0.586,0.482,0.274,0.172,0.148,0.147,0.196,0.172,0.101,0.388,0.367,0.217,0.365,0.247,0.553,0.489,0.418,0.432,0.236
